Measured values published in doi:10.1101/2021.09.30.462449v1 (biorxiv, 2021).

Experiments:
Assay in all cases: biochemical
Details in all cases: read-out: % inhibition mean (Z'Lyte)
AURKB (Aurora B) = AURKB (Aurora B) (Homo sapiens, UniProt Q96GD4)
CAMK1G (CAMKI gamma) = CAMK1G (CAMKI gamma) (Homo sapiens, UniProt Q96NX5)
CDC42 BPG (MRCKG) = CDC42 BPG (MRCKG) (Homo sapiens, UniProt Q6DT37)
CLK1 = CLK1 (Homo sapiens, UniProt P49759)
EGFR (ErbB1) = EGFR (ErbB1) (Homo sapiens, UniProt P00533)
EGFR (ErbB1) G719S = EGFR (ErbB1) G719S (Homo sapiens, UniProt P00533, G719S)
EGFR (ErbB1) L861Q = EGFR (ErbB1) L861Q (Homo sapiens, UniProt P00533, L861Q)
EGFR (ErbB1) T790M L858R = EGFR (ErbB1) T790M L858R (Homo sapiens, UniProt P00533, L858R/T790M)
ERBB4 (HER4) = ERBB4 (HER4) (Homo sapiens, UniProt Q15303)
FER = FER (Homo sapiens, UniProt P16591)
FER, sequence (P16591 whole entry): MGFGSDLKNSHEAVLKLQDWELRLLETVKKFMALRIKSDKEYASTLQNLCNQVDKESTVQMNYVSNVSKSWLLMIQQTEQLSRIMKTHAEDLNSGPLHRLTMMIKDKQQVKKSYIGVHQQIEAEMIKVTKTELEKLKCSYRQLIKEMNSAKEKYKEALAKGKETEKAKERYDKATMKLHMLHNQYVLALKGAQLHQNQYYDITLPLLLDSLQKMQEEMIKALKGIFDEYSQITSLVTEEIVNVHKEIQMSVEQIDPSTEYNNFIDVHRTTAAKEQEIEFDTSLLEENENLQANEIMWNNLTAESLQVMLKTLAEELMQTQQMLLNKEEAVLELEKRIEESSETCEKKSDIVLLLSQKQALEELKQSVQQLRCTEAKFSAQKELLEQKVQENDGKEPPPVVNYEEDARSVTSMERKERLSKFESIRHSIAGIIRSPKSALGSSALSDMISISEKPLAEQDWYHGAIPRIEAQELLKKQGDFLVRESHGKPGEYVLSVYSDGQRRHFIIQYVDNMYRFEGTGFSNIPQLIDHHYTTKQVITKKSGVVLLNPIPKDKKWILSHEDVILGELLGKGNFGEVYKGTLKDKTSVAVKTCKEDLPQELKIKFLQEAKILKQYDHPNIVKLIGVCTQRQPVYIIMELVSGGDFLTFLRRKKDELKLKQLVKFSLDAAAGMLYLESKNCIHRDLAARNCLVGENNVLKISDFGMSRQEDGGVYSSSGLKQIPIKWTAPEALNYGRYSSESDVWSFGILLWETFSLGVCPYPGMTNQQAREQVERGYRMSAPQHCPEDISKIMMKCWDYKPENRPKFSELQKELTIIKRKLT

IKBKE (IKK epsilon) = IKBKE (IKK epsilon) (Homo sapiens, UniProt Q14164)
JAK2 = JAK2 (Homo sapiens, UniProt O60674)
JAK2 JH1 JH2 = JAK2 JH1 JH2 (Homo sapiens, UniProt O60674)
KIT V559D V654A = KIT V559D V654A (Homo sapiens, UniProt P10721, V559D/V654A)
MAP2K2 (MEK2) = MAP2K2 (MEK2) (Homo sapiens, UniProt P36507)
MAP2K2 (MEK2), sequence (P36507 whole entry): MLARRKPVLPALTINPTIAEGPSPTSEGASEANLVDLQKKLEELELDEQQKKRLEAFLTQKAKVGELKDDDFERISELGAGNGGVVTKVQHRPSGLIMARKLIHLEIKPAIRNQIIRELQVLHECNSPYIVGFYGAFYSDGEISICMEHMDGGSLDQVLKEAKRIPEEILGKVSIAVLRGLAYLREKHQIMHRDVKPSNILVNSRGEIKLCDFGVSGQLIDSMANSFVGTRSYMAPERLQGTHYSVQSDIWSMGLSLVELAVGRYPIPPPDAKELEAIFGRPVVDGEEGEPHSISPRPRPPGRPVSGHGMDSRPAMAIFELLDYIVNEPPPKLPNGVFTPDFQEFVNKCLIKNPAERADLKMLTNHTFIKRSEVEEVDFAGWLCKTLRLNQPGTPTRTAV

MARK1 (MARK) = MARK1 (MARK) (Homo sapiens, UniProt Q9P0L2)
MST4 = MST4 (Homo sapiens, UniProt Q9P289)
PAK3 = PAK3 (Homo sapiens, UniProt O75914)
PDGFRA T674I = PDGFRA T674I (Homo sapiens, UniProt P16234, T674I)
PRKACA (PKA) = PRKACA (PKA) (Homo sapiens, UniProt P17612)
PRKCN (PKD3) = PRKCN (PKD3) (Homo sapiens, UniProt O94806)
PRKCZ (PKC zeta) = PRKCZ (PKC zeta) (Homo sapiens, UniProt Q05513)
RET A883F = RET A883F (Homo sapiens, UniProt P07949, A883F)
RET A883F, sequence (P07949 whole entry A883F): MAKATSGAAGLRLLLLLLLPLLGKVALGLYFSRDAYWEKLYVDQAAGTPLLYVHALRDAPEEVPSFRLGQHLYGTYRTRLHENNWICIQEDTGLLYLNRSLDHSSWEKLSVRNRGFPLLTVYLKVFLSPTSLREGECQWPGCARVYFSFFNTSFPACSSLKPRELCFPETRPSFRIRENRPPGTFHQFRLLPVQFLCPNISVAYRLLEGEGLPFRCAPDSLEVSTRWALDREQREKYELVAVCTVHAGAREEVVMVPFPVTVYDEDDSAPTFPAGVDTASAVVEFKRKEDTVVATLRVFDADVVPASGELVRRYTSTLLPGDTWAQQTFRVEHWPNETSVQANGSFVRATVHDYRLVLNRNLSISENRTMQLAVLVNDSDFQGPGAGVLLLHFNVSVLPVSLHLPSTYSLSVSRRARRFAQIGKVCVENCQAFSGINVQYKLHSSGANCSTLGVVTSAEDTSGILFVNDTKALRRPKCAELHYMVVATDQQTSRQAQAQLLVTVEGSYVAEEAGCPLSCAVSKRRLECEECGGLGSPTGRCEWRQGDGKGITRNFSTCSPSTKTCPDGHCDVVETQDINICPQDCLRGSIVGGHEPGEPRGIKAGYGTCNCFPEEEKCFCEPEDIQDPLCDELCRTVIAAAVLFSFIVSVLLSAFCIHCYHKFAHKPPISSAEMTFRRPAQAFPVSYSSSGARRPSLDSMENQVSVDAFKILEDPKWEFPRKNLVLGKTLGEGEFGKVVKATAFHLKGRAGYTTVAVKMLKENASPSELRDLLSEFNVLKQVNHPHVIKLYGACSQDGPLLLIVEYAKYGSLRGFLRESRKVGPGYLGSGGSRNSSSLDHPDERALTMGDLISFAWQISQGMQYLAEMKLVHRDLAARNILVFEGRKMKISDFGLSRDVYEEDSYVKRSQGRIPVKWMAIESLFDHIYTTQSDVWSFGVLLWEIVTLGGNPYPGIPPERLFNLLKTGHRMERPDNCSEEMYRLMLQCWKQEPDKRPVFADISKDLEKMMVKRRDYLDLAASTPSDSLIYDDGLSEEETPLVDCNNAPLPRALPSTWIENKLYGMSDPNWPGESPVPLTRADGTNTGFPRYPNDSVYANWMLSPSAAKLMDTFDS

RPS6KA2 (RSK3) = RPS6KA2 (RSK3) (Homo sapiens, UniProt Q15349)
RPS6KA2 (RSK3), sequence (Q15349 whole entry): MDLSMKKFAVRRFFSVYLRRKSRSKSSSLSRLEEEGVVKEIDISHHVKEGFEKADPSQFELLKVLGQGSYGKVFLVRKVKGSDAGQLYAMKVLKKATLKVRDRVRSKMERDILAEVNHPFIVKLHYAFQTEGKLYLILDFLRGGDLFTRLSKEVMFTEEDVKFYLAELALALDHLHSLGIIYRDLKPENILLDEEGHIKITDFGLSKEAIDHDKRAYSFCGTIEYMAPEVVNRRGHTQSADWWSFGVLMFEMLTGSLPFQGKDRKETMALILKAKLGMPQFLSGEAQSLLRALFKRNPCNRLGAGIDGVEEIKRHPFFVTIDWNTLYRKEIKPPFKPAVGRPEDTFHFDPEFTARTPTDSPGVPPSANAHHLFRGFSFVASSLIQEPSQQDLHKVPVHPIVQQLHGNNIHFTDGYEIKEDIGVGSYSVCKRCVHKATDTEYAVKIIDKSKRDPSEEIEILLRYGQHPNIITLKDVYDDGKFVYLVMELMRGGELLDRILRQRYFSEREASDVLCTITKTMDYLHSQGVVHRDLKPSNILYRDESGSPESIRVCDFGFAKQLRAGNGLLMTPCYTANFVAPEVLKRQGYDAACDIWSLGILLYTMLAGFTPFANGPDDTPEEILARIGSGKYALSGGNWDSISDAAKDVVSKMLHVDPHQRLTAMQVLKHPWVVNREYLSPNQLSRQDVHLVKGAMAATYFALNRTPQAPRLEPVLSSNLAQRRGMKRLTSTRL

TAOK2 (TAO1) = TAOK2 (TAO1) (Homo sapiens, UniProt Q9UL54)
TBK1 = TBK1 (Homo sapiens, UniProt Q9UHD2)
TNK1 = TNK1 (Homo sapiens, UniProt Q13470)
TNK1, sequence (Q13470 whole entry): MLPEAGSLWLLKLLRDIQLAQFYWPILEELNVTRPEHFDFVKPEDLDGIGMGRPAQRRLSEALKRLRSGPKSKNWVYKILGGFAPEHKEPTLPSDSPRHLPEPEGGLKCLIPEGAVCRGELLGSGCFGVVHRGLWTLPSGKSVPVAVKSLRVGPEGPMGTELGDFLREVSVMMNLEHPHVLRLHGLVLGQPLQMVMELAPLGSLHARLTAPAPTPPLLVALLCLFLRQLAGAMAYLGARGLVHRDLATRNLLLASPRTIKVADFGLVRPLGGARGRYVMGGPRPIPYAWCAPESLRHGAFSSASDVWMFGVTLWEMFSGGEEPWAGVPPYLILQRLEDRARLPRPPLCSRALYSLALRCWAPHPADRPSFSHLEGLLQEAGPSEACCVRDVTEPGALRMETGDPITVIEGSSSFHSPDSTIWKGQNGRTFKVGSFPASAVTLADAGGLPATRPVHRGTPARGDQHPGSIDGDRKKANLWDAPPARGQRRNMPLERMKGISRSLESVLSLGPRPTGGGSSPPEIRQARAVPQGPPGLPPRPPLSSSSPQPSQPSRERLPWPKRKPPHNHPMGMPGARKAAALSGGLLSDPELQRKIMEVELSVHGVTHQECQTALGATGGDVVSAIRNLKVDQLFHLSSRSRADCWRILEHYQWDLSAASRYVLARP

TXK = TXK (Homo sapiens, UniProt P42681)
TXK, sequence (P42681 whole entry): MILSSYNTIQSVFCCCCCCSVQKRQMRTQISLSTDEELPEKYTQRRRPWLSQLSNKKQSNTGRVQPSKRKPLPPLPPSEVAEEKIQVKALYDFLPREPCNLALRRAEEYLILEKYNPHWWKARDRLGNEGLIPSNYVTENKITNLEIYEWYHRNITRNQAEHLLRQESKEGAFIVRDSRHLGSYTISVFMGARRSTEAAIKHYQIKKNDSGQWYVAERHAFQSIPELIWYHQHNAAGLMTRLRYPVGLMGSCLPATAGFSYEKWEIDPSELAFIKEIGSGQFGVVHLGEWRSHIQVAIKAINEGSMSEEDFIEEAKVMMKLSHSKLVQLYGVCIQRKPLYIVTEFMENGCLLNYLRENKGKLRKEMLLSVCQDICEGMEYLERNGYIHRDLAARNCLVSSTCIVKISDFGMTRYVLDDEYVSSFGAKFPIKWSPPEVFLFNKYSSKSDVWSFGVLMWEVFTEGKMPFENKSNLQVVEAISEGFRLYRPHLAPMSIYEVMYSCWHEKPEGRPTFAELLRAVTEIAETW

CLK1, sequence (P49759 whole entry): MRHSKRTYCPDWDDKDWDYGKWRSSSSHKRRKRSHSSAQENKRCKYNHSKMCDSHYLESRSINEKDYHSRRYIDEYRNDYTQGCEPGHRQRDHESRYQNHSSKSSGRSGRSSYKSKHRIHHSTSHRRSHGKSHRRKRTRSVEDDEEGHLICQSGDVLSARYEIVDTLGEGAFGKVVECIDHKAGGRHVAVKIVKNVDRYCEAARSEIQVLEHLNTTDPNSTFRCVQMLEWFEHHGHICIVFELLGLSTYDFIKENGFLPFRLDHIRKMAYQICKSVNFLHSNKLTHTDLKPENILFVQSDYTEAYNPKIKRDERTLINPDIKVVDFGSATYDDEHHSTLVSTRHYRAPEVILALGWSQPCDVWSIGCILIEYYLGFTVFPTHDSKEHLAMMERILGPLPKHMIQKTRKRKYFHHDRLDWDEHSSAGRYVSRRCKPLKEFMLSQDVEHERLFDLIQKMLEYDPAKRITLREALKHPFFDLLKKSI

Question: Which results are given for `COc1ccc2nc3cc(Cl)ccc3c(Nc3cc(CN4CCCC4)c(O)c(CN4CCCC4)c3)c2n1` [Pyronaridine, 4-[(7-Chloro-2-methoxybenzo[b][1,5]naphthyridin-10-yl)amino]-2,6-bis(1-pyrrolidinylmethyl)phenol phosphate (1:4)]?
Answer: inhibition at 1 µM (AURKB (Aurora B)): 5%; inhibition at 1 µM (CAMK1G (CAMKI gamma)): 0%; inhibition at 1 µM (CDC42 BPG (MRCKG)): 1%; inhibition at 1 µM (CLK1): -1%; inhibition at 1 µM (EGFR (ErbB1)): -5%; inhibition at 1 µM (EGFR (ErbB1) G719S): -5%; inhibition at 1 µM (EGFR (ErbB1) L861Q): -4%; inhibition at 1 µM (EGFR (ErbB1) T790M L858R): 5%; inhibition at 1 µM (ERBB4 (HER4)): -2%; inhibition at 1 µM (FER): -21%; inhibition at 1 µM (IKBKE (IKK epsilon)): 2%; inhibition at 1 µM (JAK2): 4%; inhibition at 1 µM (JAK2 JH1 JH2): -3%; inhibition at 1 µM (KIT V559D V654A): -1%; inhibition at 1 µM (MAP2K2 (MEK2)): 2%; inhibition at 1 µM (MARK1 (MARK)): -10%; inhibition at 1 µM (MST4): 1%; inhibition at 1 µM (PAK3): -7%; inhibition at 1 µM (PDGFRA T674I): 0%; inhibition at 1 µM (PRKACA (PKA)): 1%; inhibition at 1 µM (PRKCN (PKD3)): 8%; inhibition at 1 µM (PRKCZ (PKC zeta)): -1%; inhibition at 1 µM (RET A883F): -1%; inhibition at 1 µM (RPS6KA2 (RSK3)): 0%; inhibition at 1 µM (TAOK2 (TAO1)): -1%; inhibition at 1 µM (TBK1): 4%; inhibition at 1 µM (TNK1): -3%; inhibition at 1 µM (TXK): 4%
